# Test results reported in patent publication US7056908B2, “Pharmaceutical compositions and methods for preventing skin tumor formation and causing regression of existing tumors” (priority 1991, dated 2006).
# Tests used:
# [1] = test system: grafted SP-1 mouse papilloma cells; experiment: Tumor formation from grafted SP-1 papilloma cells on nude mice, topical treatment; type: in vivo; conditions: 6.25 nmoles/treatment
# Experimental: For grafting, BALB/c-derived nude mice, approximately two months-old, were used as hosts. Animals were anesthetized with Nembutal and sterile surgical technique was used. 0.5×10^6 SP-1 or 308 cells were grafted along with 6–8×10^6 primary SENCAR mouse dermal fibroblasts. […] Cells were removed from culture dishes by treatment with 0.25% trypsin-0.01% EDTA for approximately 10 min. at 36° and washed with medium. Suspensions of papilloma cells and primary dermal fibroblasts were centrifuged 5 min. at 1000 rpm, the medium aspirated, and the cell pellet applied to the graft bed using a sterile plastic transfer pipet. Graft tumors were measured weekly, using calipers, starting three weeks after grafting and for at least 5 additional weeks thereafter. As an approximate tumor volume, the height was multiplied by the smallest and largest lateral measurements. Data are expressed as means i standard error of the mean of approximate tumor volume in mm^3.
# Five mice in each group were grafted Feb. 28, 1990 with 0.5×10^6 SP-1 cells+6×10^6 primary SENCAR mouse dermal fibroblasts.
# Tumor measurements were begun three weeks after grafting and continued for eight weeks.
# Ten mice in each group were grafted Mar. 22, 1990 with 0.5×10^6 SP-1 cells+6×10^6 primary SENCAR mouse dermal fibroblasts.
# Ten mice in each group were grafted May 17, 1990 with 0.5×10^6 SP-1 cells+6×10^6 primary SENCAR mouse dermal fibroblasts. […]
# [2] = test system: primary keratinocytes; experiment: Cell toxicity by trypan blue exclusion; type: cell-based, mouse
# Experimental: Miscellaneous Assays. Cell toxicity was determined using trypan blue exclusion as a marker for viable cells. Cells growing in 60 mm culture dishes were washed once with PBS, incubated at room temperature with 1 ml 0.4% trypan blue in normal saline (GIBCO, Rockville, Md.), washed twice with PBS, then placed on ice until cells were counted. Protein in cell lysates was determined using a commercial colorimetric assay (Bio-Rad Laboratories, Richmond, Calif.).
# Phase-contrast photomicrographs were taken at the indicated times after beginning treatment. Similar results were obtained in three additional experiments. Magnification was ×90.
# [3] = test system: c-fos mRNA; experiment: c-fos mRNA Northern blot in primary keratinocytes; type: cell-based, mouse; conditions: for time of maximum c-fos mRNA expression: 8 hour treatment, medium with 0.5% serum
# Experimental: RNA Isolation and Northern Blot Analysis. RNA was isolated by ultracentrifugation of guanidine isothiocyanate lysates through a 5.7M cesium chloride gradient (Chirgwin, J. M. et al, “Isolation of biologically active ribonucleic acid from sources enriched in ribonuclease,” Biochemistry, 18: 5294–5299, 1979). 20 μg of total RNA was loaded per lane and electrophoresed through a 1% agarose gel containing 0.66 M formaldehyde (Davis, L. G. et al, “Basic Methods in Molecular Biology,” New York: Elsevier, 1986). RNA was blotted to reinforced nitrocellulose membrane (BA-S NC; Schleicher & Schuell, Keene, N.H.) and baked at 80° C. in a vacuum oven for 2 hours. Filter were pre-hybridized at 42° overnight in buffer containing 50% formamide as previously described (Yuspa, S. H. et al, “Expression of murine epidermal differentiation markers is tightly regulated by restricted extracellular calcium concentrations in vitro,” J. Cell Biol., 109: 1207–1217, 1989); approximately 20×10^6 dpm of probe was added and hybridization carried out overnight. The final wash performed at 65° using 0.2×SSC with 0.1% SDS. Filters were exposed to Kodak X-Omat AR film at −70° with intensifying screens. Mouse c-fos transcript was detected using a 1.2 kb Bg1 II to Sal I fragment from the Finkel-Biskis-Jinkins murine sarcoma virus sequence (Curran, T. et al, “Structure of the FBJ murine osteosarcoma virus genome: molecular cloning of the associated helper virus and the cellular homologue of the v-fos gene from mouse and human cells,” Mol. Cell. Biol., 3: 914–921, 1983). Following autoradiography, remaining probe was removed by washing in 1% glycerol in deionized water at 80° for 2 minutes (Davis, L. G. et al, “Basic Methods in Molecular Biology,” New York: Elsevier, 1986) and the filter was re-hybridized to a full-length rat glyceraldehyde phosphate dehydrogenase (GAPDH) cDNA in a pUC18 vector (Fort, P. et al, “Various rat adult tissues express only one major mRNA species from the glyceraldehydes-3-phosphate-dehydrogenase multigenic family,” Nucleic. Acids. Res., 13: 1431–1442, 1985). […]
# [4] = test system: primary keratinocytes; experiment: Ornithine decarboxylase activity in primary keratinocytes; type: cell-based, mouse; conditions: 5 hours exposure
# Experimental: Enzyme Assays. Activity of epidermal transglutaminase was determined by measuring cross-linking of ^3H-putrescine to dimethylcasein (20). Cell lysates were incubated at […] for 10 minutes to inactivate tissue transglutaminase. Ornithine decarboxylase activity of cell lysates was determined by quantifying release of ^14CO2 from ^14C-ornithine (Sako, T. et al, “Partial parallelism and partial blockade by bryostatin 1 of effects of phorbol ester tumor promoters on primary mouse epidermal cells,” Cancer Res., 47: 5445–5450, 1987).
# Each point is the mean for four dishes±standard error of the mean from one experiment. Similar results were obtained in an additional experiment. As with staurosporine-mediated induction of transglutaminase, this response is restricted to a narrow dose range between 5 and 10 nM.
# [5] = test system: human bladder carcinoma cells; conditions: systemic administration at 1/10 or 1/20 the maximum tolerated dose; cited from earlier work
# [6] = test system: primary keratinocytes; experiment: Cornified envelope formation in primary keratinocytes; type: cell-based, mouse; conditions: 10 nM staurosporine or 160 nM TPA for 24 hours; 7 day old cultures
# Experimental: Cornified Envelope Quantitation. Keratinocytes were analyzed for cornified envelope formation as described (Nagae, S. et al, “Effect of retinoic acid on cornified envelope formation: difference between spontaneous envelope formation in vivo or in vitro and expression of envelope competence,” J. Invest., Dermatol., 89: 51–58, 1987), with minor modifications. Floating cells were harvested by collecting culture medium from each 60 mm dish and combining with two washes using phosphate-buffered saline without Ca^2+ and Ms^+2 (PBS). Cells were pelleted for 5 minutes at 1000 rpm in a benchtop clinical centrifuge and resuspended in 100 μl of lysis buffer (2% sodium dodecyl sulfate (SDS) and 20 mM dithiothreitol in PBS). Attached cells were harvested in 250 μl lysis buffer, combined with the preparation of floating cells, and incubated at 95° for 10 minutes. The non-solubilized, intact cornified envelopes, characteristic of terminally differentiated keratinocytes, were counted using a hemocytometer (Nagae, S. et al, “Effect of retinoic acid on cornified envelope formation: difference between spontaneous envelope formation in vivo or in vitro and expression of envelope competence,” J. Invest. Dermatol., 89: 51–58, 1987).
# Floating and attached cell populations were harvested and cornified envelopes isolated. Data are mean values for three separate dishes±standard error of the mean from one experiment.
# 7 day old primary keratinocytes were cultured with or without 60 nM bryostatin for 15 hours. […] Each data bar is the average value from duplicate dishes with the range indicated by error bars.
# [7] = test system: primary keratinocytes; type: cell-based, mouse
# Experimental: EGF binding was assessed in 6-well tissue culture dishes plated at a cell density of 2.5×10^6 cells/well (Strickland, J. E. et al, “Interaction of epidermal growth factor with basal and differentiating epidermal cells of mice resistant and sensitive to carcinogenesis,” Carcinogenesis, 5: 735–740, 1984). […] A second set of cultures received, in addition, 1 μg/ml unlabelled EGF to assess non-specific binding of radioactive ligand. Following the incubation period, cultures were washed 4 times with ice-cold binding buffer, harvested in 1.5 ml lysis buffer (0.1 M tris (pH 7.4), 0.5% SDS, 1 mM EDTA), and radioactivity determined by scintillation counting.
# Exposure of a variety of cultured cell types to TPA results in inhibition of EGF binding which is attributed to PKC-mediated phosphorylation of the EGF receptor (Diamond, L., “Tumor promoters and cell transformation,” In: D. Grunberger and S. P. Goff. (eds.), Mechanisms of Cellular Transformation by Carcinogenic Agents, pp. 73–133, New York: Pergamon Press. 1987).
# Each point is the mean of trilpicate dishes±standard error of the mean.
SMILES,effect of higher doses on papilloma growth [1],cells trypan blue positive ([2]; 7.5 hour exposure to 1 μM staurosporine) [%],cells that took up trypan blue ([2]; ≦10 nM staurosporine) [%],time of maximum c-fos mRNA expression [3] [h],c-fos mRNA expression on combined exposure with TPA ([3]; staurosporine added just before TPA),ornithine decarboxylase activity [4],retardation of tumor growth [5],increase in cornified envelopes relative to control cultures [6] [fold],reduction of 125I-EGF binding relative to controls [7] [%]
CN[C@@H]1C[C@H]2O[C@@](C)([C@@H]1OC)n1c3ccccc3c3c4c(c5c6ccccc6n2c5c31)C(=O)NC4 [staurosporine],appear to stimulate papilloma growth,74,< 5,8,higher expression of c-fos MRNA than TPA alone,induction of ornithine decarboxylase activity,approximately 60%,–,–
"CCCCCCCCCCCCCC(=O)O[C@@H]1[C@@H](C)[C@@]2(O)[C@@H](C=C(CO)C[C@]3(O)C(=O)C(C)=C[C@@H]23)[C@H]2C(C)(C)[C@]12OC(C)=O [TPA, 12-0-tetradecanoylphorbol-13-acetate, reference compound]",–,–,–,6,–,–,–,4,94
